Our source for the IC50 values is patent publication US20260306644A1, “ANTIBODY RECRUITING MOLECULES FOR THE TREATMENT OF CORONAVIRUS DISEASE-19” (priority 2023, published 2026).

For the test, the target named is T1, SARS-CoV-2 Spike A (wild-type) (Severe acute respiratory syndrome coronavirus 2, UniProt P0DTC2).
T1 construct: purchased Meso Scale Diagnostics, LLC V-PLEX SARS-CoV-2 Panel 13 (ACE2) Kit / Panel 23 (ACE2) Kit
Kind of test: MSD ACE2 competition assay (inhibition of Spike binding with ACE2, ECL), A (wild-type).

Setting [1] is: IC50 Wild Type, Wild Type Spike.
[2] abbreviates: read-out: IC50, Wild Type, Wild Type.

Values joined by “and” are separate entries in the source; they are usually repeats but may differ in a detail not shown here. Identical values can stand only once. Like-named read-outs stand apart in the source and are kept apart here. Positions of bridges follow the written chain, without caps; N, C: chain ends. Non-standard residues stand in square brackets, D forms with d. Residues, ends and D or L forms follow the SMILES beside them. No end group written: not given here. Tic = O=C(O)[C@@H]1Cc2ccccc2CN1; Aib = CC(C)(N)C(=O)O A value given as a limit tells only on which side of the number the result lay.

For the molecule `CC[C@H](C)[C@H](NC(C)=O)C(=O)N[C@@H](CC(C)C)C(=O)N[C@@H](CCC(N)=O)C(=O)N[C@@H](CCCCN)C(=O)N[C@H](C(=O)N[C@@H](Cc1ccc(O)cc1)C(=O)N[C@@H](CCC(=O)O)C(=O)N[C@H](C(=O)N[C@@H](CCSC)C(=O)N[C@@H](CCCNC(=N)N)C(=O)N[C@@H](CC(C)C)C(=O)N[C@@H](CC(C)C)C(=O)N[C@@H](CC(=O)O)C(=O)N[C@@H](CCC(=O)O)C(=O)N[C@@H](CC(C)C)C(=O)NCC(=O)N[C@@H](Cc1c[nH]cn1)C(=O)N[C@@H](C)C(=O)N[C@@H](CCC(=O)O)C(=O)N[C@@H](C)C(=O)N[C@@H](CO)C(=O)N[C@@H](CCSC)C(=O)N[C@@H](CCCNC(=N)N)C(=O)N[C@H](C(=O)N[C@@H](CO)C(=O)N[C@@H](CC(=O)O)C(=O)N[C@@H](CC(C)C)C(=O)N[C@H](C(=O)N[C@@H](Cc1ccc(O)cc1)C(=O)N[C@@H](CCC(=O)O)C(=O)N[C@@H](Cc1ccccc1)C(=O)N[C@@H](CCSC)C(=O)N[C@@H](CCCCN)C(=O)N[C@@H](CCCCN)C(=O)NCC(=O)NCCOCCOCCOCCOCCOCCOCCOCCOCCC(=O)NCCOCCOCCOCCOCCOCCOCCOCCOCCC(=O)N[C@@H](CC(=O)O)C(=O)N[C@H]1CSSC[C@@H](C(=O)N[C@H](C(N)=O)[C@@H](C)O)NC(=O)[C@H](Cc2c[nH]c3ccccc23)NC(=O)[C@H](C(C)C)NC(=O)[C@H](CC(C)C)NC(=O)[C@H](CCC(=O)O)NC(=O)CNC(=O)[C@H](CC(C)C)NC(=O)[C@H](Cc2c[nH]cn2)NC(=O)[C@H](Cc2c[nH]c3ccccc23)NC(=O)[C@H](C)NC1=O)[C@@H](C)CC)C(C)C)[C@@H](C)CC)[C@@H](C)CC` [Compound 155], the IC50 (as a rule, the concentration that inhibits the measured activity by half) under setting [1] turned out to be 7.67 nM.
Take `CC[C@H](C)[C@H](NC(=O)[C@H](CC(C)C)NC(=O)[C@H](CC(=O)O)NC(=O)[C@H](CO)NC(=O)[C@@H](NC(=O)[C@H](CCCNC(=N)N)NC(=O)[C@H](CCSC)NC(=O)[C@@H]1CSSC[C@H](NC(=O)[C@H](CC(C)C)NC(=O)[C@H](CCCNC(=N)N)NC(=O)[C@H](CCSC)NC(=O)[C@@H](NC(=O)[C@H](CCC(=O)O)NC(=O)[C@H](Cc2ccc(O)cc2)NC(=O)[C@@H](NC(=O)[C@H](CCCCN)NC(=O)[C@H](CCC(N)=O)NC(=O)[C@H](CC(C)C)NC(=O)[C@@H](NC(=O)[C@H](Cc2c[nH]c3ccccc23)NC(=O)[C@H](CCC(=O)O)NC(=O)[C@H](CCCCN)NC(=O)[C@H](CC(=O)O)NC(C)=O)[C@@H](C)CC)[C@@H](C)CC)[C@@H](C)CC)C(=O)N[C@@H](CC(=O)O)C(=O)N[C@@H](CCC(=O)O)C(=O)N[C@@H](CC(C)C)C(=O)NCC(=O)N[C@@H](Cc2c[nH]cn2)C(=O)N[C@@H](C)C(=O)N[C@@H](CCC(=O)O)C(=O)N[C@@H](C)C(=O)N1)C(C)C)C(=O)N[C@@H](Cc1ccc(O)cc1)C(=O)N[C@@H](CCC(=O)O)C(=O)N[C@@H](Cc1ccccc1)C(=O)N[C@@H](CCSC)C(=O)N[C@@H](CCCCN)C(=O)N[C@@H](CCCCN)C(=O)NCC(N)=O` [Compound 175] (Ac-DKEWILQKIYEIMRLCDELGHAEACMRVSDLIYEFMKKG-NH2; disulfide 16-25): the IC50 under setting [2] amounted to 7.68 nM.
Same read-out and setting: to `CC[C@H](C)[C@H](NC(=O)[C@H](CC(C)C)NC(=O)[C@H](CC(=O)O)NC(=O)[C@H](CO)NC(=O)[C@@H](NC(=O)[C@H](CCCNC(=N)N)NC(=O)[C@H](CCSC)NC(=O)[C@@H]1CSSC[C@H](NC(=O)[C@H](CC(C)C)NC(=O)[C@H](CCCNC(=N)N)NC(=O)[C@H](CCSC)NC(=O)[C@@H](NC(=O)[C@H](CCC(=O)O)NC(=O)[C@H](Cc2ccc(O)cc2)NC(=O)[C@@H](NC(=O)[C@H](CCCCN)NC(=O)[C@H](CCC(N)=O)NC(=O)[C@H](CC(C)C)NC(=O)[C@@H](NC(=O)[C@H](Cc2c[nH]c3ccccc23)NC(=O)[C@H](CCC(=O)O)NC(=O)[C@H](CCCCN)NC(=O)[C@H](CC(=O)O)NC(=O)[C@H](CO)NC(C)=O)[C@@H](C)CC)[C@@H](C)CC)[C@@H](C)CC)C(=O)N[C@@H](CC(=O)O)C(=O)N[C@@H](CCC(=O)O)C(=O)N[C@@H](CC(C)C)C(=O)NCC(=O)N[C@@H](Cc2c[nH]cn2)C(=O)N[C@@H](C)C(=O)N[C@@H](CCC(=O)O)C(=O)N[C@@H](C)C(=O)N1)C(C)C)C(=O)N[C@@H](Cc1ccc(O)cc1)C(=O)N[C@@H](CCC(=O)O)C(=O)N[C@@H](Cc1ccccc1)C(=O)N[C@@H](CCSC)C(=O)N[C@@H](CCCCN)C(=O)N[C@@H](CCCCN)C(=O)NCC(N)=O` [Compound 176] belongs 5.02 nM.
Take `CC[C@H](C)[C@H](NC(=O)[C@H](CC(C)C)NC(=O)[C@H](CC(=O)O)NC(=O)[C@H](CO)NC(=O)[C@@H](NC(=O)[C@H](CCCNC(=N)N)NC(=O)[C@H](CCSC)NC(=O)[C@@H]1CSSC[C@H](NC(=O)[C@H](CC(C)C)NC(=O)[C@H](CCCNC(=N)N)NC(=O)[C@H](CCSC)NC(=O)[C@@H](NC(=O)[C@H](CCC(=O)O)NC(=O)[C@H](Cc2ccc(O)cc2)NC(=O)[C@@H](NC(=O)[C@H](CCCCN)NC(=O)[C@@H](N)CCC(N)=O)[C@@H](C)CC)[C@@H](C)CC)C(=O)N[C@@H](CC(=O)O)C(=O)N[C@@H](CCC(=O)O)C(=O)N[C@@H](CC(C)C)C(=O)NCC(=O)N[C@@H](Cc2c[nH]cn2)C(=O)N[C@@H](C)C(=O)N[C@@H](CCC(=O)O)C(=O)N[C@@H](C)C(=O)N1)C(C)C)C(=O)N[C@@H](Cc1ccc(O)cc1)C(=O)N[C@@H](CCC(=O)O)C(=O)N[C@@H](Cc1ccccc1)C(=O)N[C@@H](CCSC)C(=O)N[C@@H](CCCCN)C(=O)N[C@@H](CCCCN)C(=O)NCC(N)=O` [Compound 177] (H-QKIYEIMRLCDELGHAEACMRVSDLIYEFMKKG-NH2; disulfide 10-19): the IC50 under setting [1] was > 10000 nM.
On the same count and under the same terms, the same measure for `CC[C@H](C)[C@H](NC(=O)[C@H](CCCCN)NC(=O)[C@H](CCC(N)=O)NC(C)=O)C(=O)N[C@@H](Cc1ccc(O)cc1)C(=O)N[C@@H](CCC(=O)O)C(=O)N[C@H](C(=O)N[C@@H](CCSC)C(=O)N[C@@H](CCCNC(=N)N)C(=O)N[C@@H](CC(C)C)C(=O)N[C@H]1CSSC[C@@H](C(=O)N[C@@H](CCSC)C(=O)N[C@@H](CCCNC(=N)N)C(=O)N[C@H](C(=O)N[C@@H](CO)C(=O)N[C@@H](CC(=O)O)C(=O)N[C@@H](CC(C)C)C(=O)N[C@H](C(=O)N[C@@H](Cc2ccc(O)cc2)C(=O)N[C@@H](CCC(=O)O)C(=O)N[C@@H](Cc2ccccc2)C(=O)N[C@@H](CCSC)C(=O)N[C@@H](CCCCN)C(=O)N[C@@H](CCCCN)C(=O)NCC(N)=O)[C@@H](C)CC)C(C)C)NC(=O)[C@H](C)NC(=O)[C@H](CCC(=O)O)NC(=O)[C@H](C)NC(=O)[C@H](Cc2c[nH]cn2)NC(=O)CNC(=O)[C@H](CC(C)C)NC(=O)[C@H](CCC(=O)O)NC(=O)[C@H](CC(=O)O)NC1=O)[C@@H](C)CC` [Compound 178] (Ac-QKIYEIMRLCDELGHAEACMRVSDLIYEFMKKG-NH2; disulfide 10-19): > 10000 nM; for `CC[C@H](C)[C@H](N)C(=O)N[C@@H](CC(C)C)C(=O)N[C@@H](CCC(N)=O)C(=O)N[C@@H](CCCCN)C(=O)N[C@H](C(=O)N[C@@H](Cc1ccc(O)cc1)C(=O)N[C@@H](CCC(=O)O)C(=O)N[C@H](C(=O)N[C@@H](CCSC)C(=O)N[C@@H](CCCNC(=N)N)C(=O)N[C@@H](CC(C)C)C(=O)N[C@H]1CSSC[C@@H](C(=O)N[C@@H](CCSC)C(=O)N[C@@H](CCCNC(=N)N)C(=O)N[C@H](C(=O)N[C@@H](CO)C(=O)N[C@@H](CC(=O)O)C(=O)N[C@@H](CC(C)C)C(=O)N[C@H](C(=O)N[C@@H](Cc2ccc(O)cc2)C(=O)N[C@@H](CCC(=O)O)C(=O)N[C@@H](Cc2ccccc2)C(=O)N[C@@H](CCSC)C(=O)N[C@@H](CCCCN)C(=O)N[C@@H](CCCCN)C(=O)NCC(N)=O)[C@@H](C)CC)C(C)C)NC(=O)[C@H](C)NC(=O)[C@H](CCC(=O)O)NC(=O)[C@H](C)NC(=O)[C@H](Cc2c[nH]cn2)NC(=O)CNC(=O)[C@H](CC(C)C)NC(=O)[C@H](CCC(=O)O)NC(=O)[C@H](CC(=O)O)NC1=O)[C@@H](C)CC)[C@@H](C)CC` [Compound 179] (H-ILQKIYEIMRLCDELGHAEACMRVSDLIYEFMKKG-NH2; disulfide 12-21): 152 nM and 168 nM.
In turn, `CC[C@H](C)[C@H](NC(C)=O)C(=O)N[C@@H](CC(C)C)C(=O)N[C@@H](CCC(N)=O)C(=O)N[C@@H](CCCCN)C(=O)N[C@H](C(=O)N[C@@H](Cc1ccc(O)cc1)C(=O)N[C@@H](CCC(=O)O)C(=O)N[C@H](C(=O)N[C@@H](CCSC)C(=O)N[C@@H](CCCNC(=N)N)C(=O)N[C@@H](CC(C)C)C(=O)N[C@H]1CSSC[C@@H](C(=O)N[C@@H](CCSC)C(=O)N[C@@H](CCCNC(=N)N)C(=O)N[C@H](C(=O)N[C@@H](CO)C(=O)N[C@@H](CC(=O)O)C(=O)N[C@@H](CC(C)C)C(=O)N[C@H](C(=O)N[C@@H](Cc2ccc(O)cc2)C(=O)N[C@@H](CCC(=O)O)C(=O)N[C@@H](Cc2ccccc2)C(=O)N[C@@H](CCSC)C(=O)N[C@@H](CCCCN)C(=O)N[C@@H](CCCCN)C(=O)NCC(N)=O)[C@@H](C)CC)C(C)C)NC(=O)[C@H](C)NC(=O)[C@H](CCC(=O)O)NC(=O)[C@H](C)NC(=O)[C@H](Cc2c[nH]cn2)NC(=O)CNC(=O)[C@H](CC(C)C)NC(=O)[C@H](CCC(=O)O)NC(=O)[C@H](CC(=O)O)NC1=O)[C@@H](C)CC)[C@@H](C)CC` [Compound 180] (Ac-ILQKIYEIMRLCDELGHAEACMRVSDLIYEFMKKG-NH2; disulfide 12-21) yielded an IC50 under setting [1] of 137 nM.
For the molecule “{CH2CO}-ASYHLGELVW[Tic][Aib]C[dE]ILQKIYEIMRLLDELGHAEASMRVSDLIYEFMKK (thioether N-13) [Compound 131]”, the IC50 under setting [1] came out at 31.5 nM.
